Test results as given in patent US20230263749A1, “COMPOSITIONS AND METHODS FOR IMPROVING NEUROLOGICAL DISEASES AND DISORDERS” (CuraSen Therapeutics, Inc., priority 2020, published 2023).
“Also recorded” adds a separate entry of the source.

Legend:
Format in all cases: in vivo, human
subjects = experiment: Visual verbal learning test (VVLT); settings: crossover study, Part A
Method: Subjects are presented 30 words on a screen, one at a time, for 1 second with a 1-second interval between words over a total of 1 minute. This is repeated in 3 trials. After each trial, subjects are asked to recall as many words as they can. After the third trial, there is a delay of 2.5 hours and subjects are then tested once for delayed recall. […] Since this was a crossover study, everyone who completed Part A was dosed with the 3 agents plus placebo.

healthy subjects [1] = experiment: Heart rate by triplicate ECG after Compound 03-5 with or without nadolol pre-administration
Method: Heart rate was measured by triplicate ECG recordings. Data are presented as means changes from time-matched measures recorded on the day before the first dose of study drug (Day −1).
Healthy volunteers were be enrolled into 2 cohorts in a study to undertake within-subject dose titration of Compound 03-5 and/or nadolol in order to explore doses/dose combinations that mitigate peripheral effects of Compound 03-5, e.g. on heart rate, while preserving possible central effects of Compound 03-5 on cerebral perfusion and pupillary light reflex.
Cohort D1 enrolled 8 healthy subjects and undertook an evaluation of the effects of treatment on ECG following repeat dosing of Compound 03-5 in the presence of escalating doses of nadolol according to following schematic.
Eight healthy subjects aged 18-50 years were enrolled into Cohort D1 and received escalating doses of Compound 03-5 (3-12 mg) administered once daily 2 hours follow pre-administration of nadolol (1-40 mg). On all dosing days, study drug(s) were administered orally after an overnight fast of at least 8 hours.
(§1) Routine measures of ECG, vital signs, safety labs, physical exams and plasma sample collections for analysis of drug pharmacokinetics (PK) were undertaken according to the Schedule of Events (Table 1).
(§2) In Cohort D2, 8 healthy volunteers aged 55-75 years were admitted on Day −1 for a 5-day confinement period at the research facility. During this confinement, subjects received escalating doses of open label Compound 03-5 (1-10 mg) once-daily from Day 1 through Day 3 2 hours after pre-administration of open-label nadolol (3 mg) one each for the 3 dosing days according to the following schematic. Subjects remained in-residency until all study procedures are completed on Day 4.

healthy subjects [2] = experiment: Blood potassium, glucose and other peripheral effects of Compound 03-5 with or without nadolol
Source text: Data are presented as individual observations for all available subjects.
as §1

patients = experiment: Cerebral blood flow relative to baseline after a single dose in patients (Example 1)
healthy subjects [3] = experiment: ASL MRI cerebral perfusion before and after a single dose in healthy subjects (Example 3)
Method: The data are plotted as change from baseline in cerebral blood flow in different regions of the brain.
Six healthy subjects aged 44-52 were treated with a single dose of […]. The Baseline vs. post-dose paired t-tests results: p=0.019. The color scale is shown in the middle and indicates cerebral blood flow with low values in red and high values in yellow.
In a clinical study, healthy subjects were administered doses of clenbuterol ranging from 20 to 160 μg and ASL MM was conducted prior to and after dosing with an objective to ascertain whether this neuroimaging method enables the detection of a clinically relevant CNS signal.
In a region of interest (ROI) analysis focusing on the hippocampus, which is well understood to be affected in neurodegenerative disorders, a single dose of 80 μg of clenbuterol causes a robust increase in perfusion (see FIG. 7). […] Taken together with other cohorts in which ASL MM was conducted, a clear dose response relationship is seen between dose of clenbuterol and cerebral perfusion (FIG. 8). […] Our hypothesis is that by improving cerebral perfusion, particularly in areas of the brain that are relevant for symptoms that are commonly found in neurodegenerative diseases such as PD and AD, the administration of a β-AR agonist (such as a β-agent) will have a positive effect on clinically relevant symptoms such as memory and cognition.

healthy subjects [4] = experiment: Adaptive tracking test (visuomotor coordination and vigilance); settings: single dose of 160 μg clenbuterol
Source text: Adaptive tracking measures visuomotor coordination and vigilance. In this test, the subject uses a joystick to move a small dot so that it stays within a continuously moving circle on a computer screen (Boland 1984). During the test, the speed of the circle is adjusted in response to the subject's ability to keep the dot in the circle, ensuring that the test is adapted to the individual subject. […] The improvement shown by subjects is in the same range as that seen with subjects treated with the acetylcholinesterase inhibitor donepezil, which is in clinical use for the treatment of mild to moderate AD (Groeneveld 2016).

[5] = tested on: healthy volunteers aged 55-75 years; experiment: CANTAB cognition battery, Cohort D2; settings: Compound 03-5 1, 3 and 10 mg once daily, 2 h after 3 mg nadolol, change from within-day pre-dose
Method: CANTAB data from healthy adults 55-75 years of age (N=4) who received once-daily 3 mg nadolol and Compound 03-5 (1, 3, and 10 mg) on Day 1, Day 2 and Day 3. […] Data are presented as mean changes from the within-day pre-dose assessment.
In some embodiments, cognition may be evaluated using the Cambridge Neuropsychological Test Automated Battery (CANTAB) assessment (see, for example, Sahakian, et al., (1988). Brain. 111 (3): 695-718). Cognitive domains, such as attention, visuospatial working memory, episodic memory, speed of process and executive function can be assessed using the CANTAB Battery Test, which includes the following: • Reaction Time (RTI), • Paired Associates Learning (PAL), • Verbal Recognition Memory (VRM) Immediate Free Recall, • Rapid Visual Information Processing (RVP), • Spatial Working Memory (SWM), • Adaptive Tracking, and • VRM Delayed Free recall and Forced-Choice Recognition.
as §2

[6] = clenbuterol doses of 80 and 160 μg

## CC(C)NCC(O)COc1cccc2[nH]ccc12 (stereo not shown) [pindolol]
subjects
  effect on the VVLT: detrimental effect

## CC(C)(C)NCC(O)COc1cccc2c1CC(O)C(O)C2 (stereo not shown) [nadolol]
Healthy subjects [1]; Cohort D1, pre-administered nadolol 1 mg up to 40 mg, Compound 03-5 3-12 mg
  effect of nadolol on peripheral effects of Compound 03-5 on heart rate, glucose, potassium, tachycardia, tremor and palpitations: blocked the peripheral effects
Healthy subjects [1]; Cohort D1, pre-administration of 1 mg nadolol, Compound 03-5 orally up to 6 mg
  effect of nadolol on Compound 03-5 increase in heart rate and other peripheral effects including hyperglycemia and hypokalemia: substantially attenuated
Healthy subjects [1]; Cohort D2, pre-administered nadolol 3 mg, Compound 03-5 1-10 mg
  effect of nadolol on peripheral effects of Compound 03-5 on heart rate, etc.: similarly blocked the peripheral effects
Healthy subjects [2]; nadolol 1-40 mg, Cohorts D1 and D2
  effect of nadolol on Compound 03-5 hypokalemia: attenuation of hypokalemia
Healthy subjects [2]; pre-administration of 1 mg nadolol, 6 mg Compound 03-5
  effect of nadolol on effects of Compound 03-5 on blood glucose and potassium, tachycardia, tremor and palpitations: Concomitant attenuation

## CC(C)(C)NCC(O)c1cc(Cl)c(N)c(Cl)c1 (stereo not shown) [clenbuterol]
patients; single dose of clenbuterol 160 μg
  cerebral blood flow (CBF) relative to baseline: robust global increase in cerebral blood flow; also recorded: positive increase in cerebral blood flow
patients; single dose of clenbuterol 160 μg and nadolol 5 mg
  cerebral blood flow (CBF) relative to baseline: robust global increase in cerebral blood flow
patients; single dose of clenbuterol ranging from 30 to 160 μg, tracked over 3 days
  cerebral blood flow (CBF) relative to baseline: robust global increase in cerebral blood flow
Healthy subjects [3]; 6 healthy subjects aged 44 to 52, single dose of 80 μg clenbuterol, hippocampus ROI
  increase in hippocampal perfusion, on average: 25%
Healthy subjects [3]; clenbuterol dose of 40 μg
  cerebral perfusion increase as measured by CBF: minimal increase
Healthy subjects [3]; clenbuterol doses below 30 μg
  cerebral perfusion increase as measured by CBF: do not produce significant cerebral perfusion increases
Healthy subjects [3]; [6]
  global perfusion (ASL MRI): robust, global increase in perfusion
  improvement in perfusion in brain areas relevant to the neuropathology of neurodegenerative disorders: ~25%
Healthy subjects [3]; healthy subjects, single dose of 160 μg clenbuterol
  cerebral perfusion (ASL MRI): robust global increase in cerebral perfusion
Healthy subjects [4]; healthy subjects, preliminary data
  cognition as measured by adaptive tracking and word recall: improves cognition
Healthy subjects [4]
  performance in adaptive tracking (percent time dot kept within moving circle): improved adaptive tracking; also recorded: performance in adaptive tracking improves
subjects
  effect on the VVLT: positive effects

## CC(C)(C)NC[C@H](O)c1cccc(C#N)n1 [Compound 03-5, (S)-6-(2-(tert-butylamino)-1-hydroxyethyl)picolinonitrile]
Healthy subjects [1]; 6 mg Compound 03-5 after pre-administration of 1 mg nadolol
  mean maximum increase in heart rate: 7 beats per minute
Healthy subjects [2]; Compound 03-5 monotherapy 0.3 mg-6 mg, Cohorts A1-A5
  hypokalemia (blood potassium levels): Dose-dependent increases in hypokalemia
[5]
  performance in the CANTAB cognition battery: improvements in performance in the CANTAB cognition battery

## CC(C)(C)NCC(O)c1ccc(O)c(CO)c1 (stereo not shown) [salbutamol]
subjects
  effect on the VVLT: positive effects
